Values of other authors, collected in US20220087960A1, “Oral Pharmaceutical Immediate Release Composition” (Aardvark Therapeutics Inc., priority 2020, published 2022).

Test system: rodent obesity models
Details: cited from earlier work

SMILES: CC[N+](CC)(CC(=O)Nc1c(C)cccc1C)Cc1ccccc1.O=C([O-])c1ccccc1 [DB, benzyl-[2-(2,6-dimethylanilino)-2-oxoethyl]-diethylazanium benzoate]
- food intake: suppressed food intake
- weight gain: inhibited weight gain
